Results on 21 compounds are retold here after US7615643B2 (SmithKline Beecham Corporation, priority 2006, dated 2009).

Counter-ions that a name gives are not always drawn.

This test addresses T1, PLK1 (Homo sapiens, UniProt P53350).
T1 construct: PLK kinase domain (amino acids 21-346 preceded by MKKGHHHHHHD); made in house; host or cells: baculovirus infected T. ni cells
In words: Assay for inhibition of PLK1 (SPA kinase assay). It is filed as biochemical. The note with it: 1 μM ATP, 2 nM PLK1 kinase domain, read-out: PLK1 pIC50 (converted). On the procedure:
I. Assay for Inhibition of PLK1
A. Preparation of 6× N-terminal His-tagged PLK Kinase Domain
6× N-terminal His-tagged PLK kinase domain (amino acids 21-346 preceded by MKKGHHHHHHD) SEQ ID: No. 1. was prepared from baculovirus infected T. ni cells under polyhedrin promoter control. All procedures were performed at 4° C. Cells were lysed In 50 mM HEPES, 200 mM NaCl, 50 mM imidazole, 5% glycerol; pH 7.5. The homogenate was centrifuged at 14K rpm in a SLA-1500 rotor for 1 hr and the supernatant filtered through a 1.2 micron filter. The supernatant was loaded onto a Nickel chelating Sepharose (Amersham Pharmacia) column and washed with lysis buffer. Protein was eluted using 20%, 30% and 100% buffer B steps where buffer B was 50 mM HEPES, 200 mM NaCl, 300 mM imidazole, 5% glycerol; pH 7.5. Fractions containing PLK were determined by SDS-PAGE. Fractions containing PLK were diluted five-fold with 50 mM HEPES, 1 mM DTT, 5% glycerol; pH 7.5, then loaded on an SP Sepharose (Amersham Pharmacia) column. After washing the column with 50 mM HEPES, 1 mM DTT, 5% glycerol; pH 7.5, PLK was step eluted with 50 mM HEPES, 1 mM DTT, 500 mM NaCl; 5% glycerol; pH 7.5. PLK was concentrated using a 10 kDa molecular weight cutoff membrane and then loaded onto a Superdex 200 gel filtration (Amersham Pharmacia) column equilibrated in 25 mM HEPES, 1 mM DTT, 500 mM NaCl, 5% glycerol; pH 7.5. Fractions containing PLK were determined by SDS-PAGE. PLK was pooled, aliquoted and stored at −80° C. Samples were quality controlled using mass spectrometry, N-terminal sequencing and amino acid analysis.
B. Enzyme Activity +/− Inhibitors was Determined as Follows:
All measurements were obtained under conditions where signal production increased linearly with time and enzyme. Test compounds were added to white 384-well assay plates (0.1 μL for 10 μL and some 20 μL assays, 1 μL for some 20 μL assays) at variable known concentrations in 100% DMSO. DMSO (1-5% final, as appropriate) and EDTA (65 mM in reaction) were used as controls. Reaction Mix was prepared as follows at 22° C.: • 25 mM HEPES, pH 7.2 • 15 mM MgCl2 • 1 μM ATP • 0.05 μCi/well ^33P-γ ATP (10 Ci/mMol) • 1 μM substrate peptide (Biotin-Ahx-SFNDTLDFD) SEQ ID:No. 2. • 0.15 mg/mL BSA • 1 mM DTT • 2 nM PLK1 kinase domain (added last)
Reaction Mix (10 or 20 μL) was quickly added to each well immediately following addition of enzyme via automated liquid handlers and incubated 1-1.5 h at 22° C. The 20 μL enzymatic reactions were stopped with 50 μL of stop mix (50 mM EDTA, 4.0 mg/mL Streptavidin SPA beads in Standard Dulbecco's PBS (without Mg^2+ and Ca^2+), 50 μM ATP) per well. The 10 μL reactions were stopped with 10 μL of stop mix (50 mM EDTA, 3.0 mg/mL Streptavidin-coupled SPA imaging Beads (“LeadSeeker”) in Standard Dulbecco's PBS (without Mg^2+ and Ca^2+), 50 μM ATP) per well. Plates were sealed with clear plastic seals, spun at 500×g for 1 min or settled overnight, and counted in Packard TopCount for 30 seconds/well (regular SPA) or imaged using a Viewlux imager (LeadSeeker SPA). Signal above background (EDTA controls) was converted to percent Inhibition relative to that obtained in control (DMSO-only) wells.

T1 sequence (P53350 21-346): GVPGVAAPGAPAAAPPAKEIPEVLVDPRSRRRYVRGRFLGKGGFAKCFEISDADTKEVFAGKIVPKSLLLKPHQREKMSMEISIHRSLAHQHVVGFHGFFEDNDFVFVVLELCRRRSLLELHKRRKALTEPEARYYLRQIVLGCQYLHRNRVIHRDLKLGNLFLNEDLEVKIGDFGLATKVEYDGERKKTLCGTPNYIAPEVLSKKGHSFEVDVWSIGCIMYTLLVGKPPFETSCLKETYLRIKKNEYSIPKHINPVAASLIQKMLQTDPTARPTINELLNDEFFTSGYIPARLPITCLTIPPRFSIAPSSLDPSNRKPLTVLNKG

On to `C[C@@H](Oc1cc(-n2cnc3ccc(CS(C)(=O)=O)cc32)sc1C(N)=O)c1cccc(OCC2CCCN2C)c1Cl` (stereo partly drawn) [Example 57, 3-({(1R)-1-[2-Chloro-3-({[(2S)-1-methyl-2-pyrrolidinyl]metliyl}oxy)phenyl]ethyl}oxy)-5-{6-[(methylsulfonyl)methyl]-1H-benzimidazol-1-yl}-2-thiophenecarboxamide], for which the IC50 is less than 100 nM.

Regarding `C[C@@H](Oc1cc(-n2cnc3cc(-c4cnn(C)c4)ccc32)sc1C(N)=O)c1ccc(F)c(OC2CCN(C)CC2)c1Cl` [Example 34, 3-[((1R)-1-{2-Chloro-4-fluoro-3-[(1-methyl-4-piperidinyl)oxy]phenyl}ethyl)oxy]-5-[5-(1-methyl-1H-pyrazol-4-yl)-1H-benzimidazol-1-yl]-2-thiophenecarboxamide trifluoroacetate], the IC50 was less than 100 nM.

Consider `C[C@@H](Oc1cc(-n2cnc3cc(-c4ccc(NC5CCN(C)CC5)nc4)ccc32)sc1C(N)=O)c1cccc(OC2CCN(C)CC2)c1Cl` [Example 18, 3-[((1R)-1-{2-chloro-3-[(1-methyl-4-piperidinyl)oxy]phenyl}ethyl)oxy]-5-(5-{6-[(1-methyl-4-piperidinyl)amino]-3-pyridinyl}-1H-benzimidazol-1-yl)-2-thiophenecarboxamide], for which the IC50 was less than 100 nM.

In the case of `CC(Oc1cc(-n2cnc3cc(-c4cnn(C)c4)ccc32)sc1C(N)=O)c1cccc(OC2CCN(C)CC2)c1F` (racemic) [Example 76, (+/−)-3-[(1-{2-Fluoro-3-[(1-methyl-4-piperidinyl)oxy]phenyl}ethyl)oxy]-5-[5-(1-methyl-1H-pyrazol-4-yl)-1H-benzimidazol-1-yl]-2-thiophenecarboxamide], the IC50 was less than 100 nM.

`C[C@@H](Oc1cc(-n2cnc3ccccc32)sc1C(N)=O)c1cccc(OCCN2CCOCC2)c1Cl` [Example 15, 5-(1H-benzimidazol-1-yl)-3-{[(1R)-1-(2-chloro-3-{[2-(4-morpholinyl)ethyl]oxy}phenyl)ethyl]oxy}-2-thiophenecarboxamide]: the IC50 was less than 100 nM.

As for `C[C@@H](Oc1cc(-n2cnc3ccc(OC(F)(F)F)cc32)sc1C(N)=O)c1cccc(OC2CCNCC2)c1Cl` [Example 63, 3-({(1R)-1-[2-chloro-3-(4-piperidinyloxy)phenyl]ethyl}oxy)-5-{6-[(trifluoromethyl)oxy]-1H-benzimidazol-1-yl}-2-thiophenecarboxamide], the IC50 was less than 100 nM.

In the case of `C[C@@H](Oc1cc(-n2cnc3cc(-c4cnn(C)c4)ccc32)sc1C(N)=O)c1cccc(OCC2CCN(C(=O)OC(C)(C)C)CC2)c1Cl` [Example 43, 1,1-Dimethylethyl 4-[({3-[(1R)-1-({2-(aminocarbonyl)-5-[5-(1-methyl-1H-pyrazol-4-yl)-1H-benzimidazol-1-yl]-3-thienyl}oxy)ethyl]-2-chlorophenyl}oxy)methyl]-1-piperidinecarboxylate], the IC50 was 100 to 1000 nM.

`CC(Oc1cc(-n2cnc3cc(-c4cnn(C)c4)ccc32)sc1C(N)=O)c1ccnc(OC2CCNCC2)c1` (racemic) [Example 79, (+/−)-5-[5-(1-Methyl-1H-pyrazol-4-yl)-1H-benzimidazol-1-yl]-3-({1-[2-(4-piperidinyloxy)-4-pyridinyl]ethyl}oxy)-2-thiophenecarboxamide]: the IC50 is less than 100 nM.

In the case of `CC(C)N1CCC(Oc2cccc([C@@H](C)Oc3cc(-n4cnc5cc(Cl)ccc54)sc3C(N)=O)c2Cl)CC1` [Example 24, 5-(5-Chloro-1H-benzimidazol-1-yl)-3-{[(1R)-1-(2-chloro-3-{[1-(1-methylethyl)-4-piperidinyl]oxy}phenyl)ethyl]oxy}-2-thiophenecarboxamide], the IC50 was less than 100 nM.

In the case of `C[C@@H](Oc1cc(-n2cnc3cc(Br)ccc32)sc1C(N)=O)c1cccc(OC2CCN(C)CC2)c1Cl` [Example 51, 5-(5-Bromo-1H-benzimidazol-1-yl)-3-[((1R)-1-{2-chloro-3-[(1-methyl-4-piperidinyl)oxy]phenyl}ethyl)oxy]-2-thiophenecarboxamide], the IC50 is less than 100 nM.

For `C[C@@H](Oc1cc(-n2cnc3cc(Cl)ccc32)sc1C(N)=O)c1cccc(OC2CCNCC2)c1Cl` [Example 8, 5-(5-Chloro-1H-benzimidazol-1-yl)-3-({(1R)-1-[2-chloro-3-(4-piperidinyloxy)phenyl]ethyl}oxy)-2-thiophenecarboxamide], the IC50 is less than 100 nM.

`C[C@@H](Oc1cc(-n2cnc3cc(-c4cnn(C)c4)ccc32)sc1C(N)=O)c1ccc(F)c(OC2CCN(CCF)CC2)c1Cl` [Example 35, 3-{[(1R)-1-(2-Chloro-4-fluoro-3-{[1-(2-fluoroethyl)-4-piperidinyl]oxy}phenyl)ethyl]oxy}-5-[5-(1-methyl-1H-pyrazol-4-yl)-1H-benzimidazol-1-yl]-2-thiophenecarboxamide]: the IC50 is less than 100 nM.

`C[C@@H](Oc1cc(-n2cnc3cc(-c4cccnc4)ccc32)sc1C(N)=O)c1cccc(OC2CCNCC2)c1Cl` [Example 12, 3-({(1R)-1-[2-chloro-3-(4-piperidinyloxy)phenyl]ethyl}oxy)-5-[5-(pyridinyl)-1H-benzimidazol-1-yl]-2-thiophenecarboxamide]: the IC50 is less than 100 nM.

As to `C[C@@H](Oc1cc(-n2cnc3cc(Cl)ccc32)sc1C(N)=O)c1cccc(OC[C@H]2CNCCO2)c1Cl` [Example 27, 5-(5-Chloro-1H-benzimidazol-1-yl)-3-{[(1R)-1-(2-chloro-3-{[(2R)-2-morpholinylmethyl]oxy}phenyl)ethyl]oxy}-2-thiophenecarboxamide], the IC50 is less than 100 nM.

As to `C[C@@H](Oc1cc(-n2cnc3ccc(C#N)cc32)sc1C(N)=O)c1cccc(OC2CCNCC2)c1Cl` [Example 5, 3-{(1R)-1-[2-chloro-3(piperidin-4-yloxy)phenyl]ethoxy}-5-(6-cyano-1H-benzimidazol-1-yl)thiophene-2-carboxamide], the IC50 was less than 100 nM.

Turning to `C[C@@H](Oc1cc(-n2cnc3cc(Cl)ccc32)sc1C(N)=O)c1cccc(OC2CCN(C)CC2)c1Cl` [Example 3], the IC50 is less than 100 nM.

Take `C[C@@H](Oc1cc(-n2cnc3ccccc32)sc1C(N)=O)c1cccc(OC2CCNCC2)c1Cl` [Example 14, 5-(1H-Benzimidazol-1-yl)-3-({(1R)-1-[2-chloro-3-(4-piperidinyloxy)phenyl]ethyl}oxy)-2-thiophenecarboxamide]: the IC50 was less than 100 nM.

`CC(Oc1cc(-n2cnc3cc(-c4cnn(C)c4)ccc32)sc1C(N)=O)c1cc(OC2CCNCC2)ccn1` (stereo not drawn) [Example 85, 5-[5-(1-Methyl-1H-pyrazol-4-yl)-1H-benzimidazol-1-yl]-3-({1-[4-(4-piperidinyloxy)-2-pyridinyl]ethyl}oxy)-2-thiophenecarboxamide]: the IC50 is less than 100 nM.

As for `C[C@@H](Oc1cc(-n2cnc3cc(F)c(Cl)cc32)sc1C(N)=O)c1cccc(OC2CCNCC2)c1Cl` [Example 69, 5-(6-Chloro-5-fluoro-1H-benzimidazol-1-yl)-3-({(1R)-1-[2-chloro-3-(4-piperidinyloxy)phenyl]ethyl}oxy)-2-thiophenecarboxamide], the IC50 is less than 100 nM.

Consider `C[C@@H](Oc1cc(-n2cnc3ccc(CS(C)(=O)=O)cc32)sc1C(N)=O)c1cccc(OC2CCN(C)CC2)c1Cl` [Example 55, 3-[((1R)-1-{2-chloro-3-[(1-methyl-4-piperidinyl)oxy]phenyl}ethyl)oxy]-5,6-{6-[(methylsulfonyl)methyl]-1H-benzimidazol-1-yl}-2-thiophenecarboxamide], for which the IC50 was less than 100 nM.

As for `C[C@@H](Oc1cc(-n2cnc3cc(OC(F)(F)F)ccc32)sc1C(N)=O)c1cccc(OC2CCN(C)CC2)c1Cl` [Example 62, 3-[((1R)-1-{2-chloro-3-[(1-methyl-4-piperidinyl)oxy]phenyl}ethyl)oxy]-5-{5-[(trifluoromethyl)oxy]-1H-benzimidazol-1-yl}-2-thiophenecarboxamide], the IC50 was less than 100 nM.
